Holding throughout (test): ≥ marks a high value that may be exact or a test limit, other limits are often not marked, values filed in µg/mL are converted to µM
Test [1] concerns Bacillus subtilis ATCC 6633.
The test system of test [2] is Pseudomonas aeruginosa ATCC BAA-427.
Test [3] relates to Klebsiella pneumoniae ATCC 27736.
The test system of test [4] is Cronobacter muytjensii ATCC 51329.
Test [5] concerns Staphylococcus aureus NCTC 8325-4.
Test [6] concerns Staphylococcus aureus RF122.
In test [7] the test system is Cronobacter sakazakii DSM 4485.
For test [8], the system named is Escherichia coli NCIMB 11843.
Test [9] concerns Cronobacter sakazakii ATCC BAA-894.
Test [10] deals with Staphylococcus aureus Newman.
The subject of test [11] is Pseudomonas fluorescens NCIMB 9046.
The test system of test [12] is Staphylococcus aureus SA113.
In test [13] the test system is Staphylococcus aureus RN4220.
For test [14], the system named is Klebsiella pneumoniae NCIMB 13218.
In test [15] the test system is Cronobacter sakazakii DPC 6440.
The test system of test [16] is Salmonella enterica subsp. enterica serovar Typhimurium LT2.
Test [17] deals with Pseudomonas aeruginosa 910.
Test [18] relates to Pseudomonas aeruginosa 253.
In test [19] the test system is Pseudomonas aeruginosa 919.
Test [20] relates to Pseudomonas aeruginosa PAO1.
Test [21] concerns Escherichia coli DH5alpha.
The subject of another test is Staphylococcus xylosus.
Test [22] has as its system Staphylococcus aureus ATCC 29213.
Test [23] deals with Escherichia coli ATCC 25922.
Test [24] relates to Candida albicans ATCC 37092.
Test [25] concerns Corynebacterium glutamicum ATCC 13032.
The test system of the next test is Escherichia coli HB101.
Test [26] deals with Staphylococcus aureus ATCC 9144.
The test system of test [27] is Pseudomonas aeruginosa ATCC 27853.

Converted amounts (≈) assume the structure as drawn.

Broadly, the MIC is the lowest concentration found to suppress growth. A lower MIC goes with greater potency.

For the compound `CC[C@H](C)[C@H](NC(=O)CNC(=O)[C@H](CCCN=C(N)N)NC(=O)[C@H](C)NC(=O)[C@H](Cc1ccccc1)NC(=O)[C@H](Cc1cnc[nH]1)NC(=O)[C@H](Cc1cnc[nH]1)NC(=O)[C@H](Cc1ccccc1)NC(=O)[C@@H](N)Cc1ccccc1)C(=O)N[C@H](C(=O)N[C@@H](Cc1cnc[nH]1)C(=O)N[C@H](C(=O)NCC(=O)N[C@@H](CCCCN)C(=O)N[C@H](C(=O)N[C@H](C(=O)N[C@@H](Cc1cnc[nH]1)C(=O)N[C@@H](CCCN=C(N)N)C(=O)N[C@@H](CC(C)C)C(=O)N[C@H](C(=O)N[C@H](C(=O)NCC(N)=O)[C@@H](C)O)C(C)C)[C@@H](C)CC)[C@@H](C)O)C(C)C)C(C)C` [FFHHFARGIVHVGKTIHRLVTG], the MIC in test [1] was determined as 16 µM (≈ 40.5 µg/mL); in [2], 24 µM (≈ 60.7 µg/mL); in test [3], 12 µM (≈ 30.3 µg/mL).

Turning to `CC[C@H](C)[C@H](N)C(=O)N[C@@H](CCCCN)C(=O)N[C@@H](Cc1cnc[nH]1)C(=O)N[C@@H](CCC(N)=O)C(=O)NCC(=O)N[C@@H](CC(C)C)C(=O)N1CCC[C@H]1C(=O)N[C@@H](CCC(N)=O)C(=O)N[C@@H](C)C(=O)O` [IKHQGLPQA], the MIC in test [4] was not below 2500 µM; in test [5], not below 2500 µM; in test [6], not below 625 µM; in test [7] it was not below 2500 µM; in [8], not below 2500 µM; in [9], not below 1250 µM. Moreover, the MIC in test [10] was not below 2500 µM; in test [11], not below 2500 µM; in test [12], not below 2500 µM; in [13] it was not below 625 µM; in test [14], not below 2500 µM; in [15], not below 625 µM. For the same compound, the MIC in test [16] is not below 2500 µM.

`CC[C@H](C)[C@H](N)C(=O)N[C@@H](CCCCN)C(=O)N[C@@H](Cc1cnc[nH]1)C(=O)N[C@@H](CCC(N)=O)C(=O)NCC(=O)N[C@@H](CCCN=C(N)N)C(=O)N1CCC[C@H]1C(=O)N[C@@H](CCC(N)=O)C(=O)N[C@@H](CCC(=O)O)C(=O)O` [IKHQGRPQE]: the MIC in test [4], in [5], in test [6], in test [7], in test [8] and in [9] was not below 2500 µM throughout. Further, the MIC in test [10], in test [11], in test [12], in [13], in [14] and in [15] was not below 2500 µM throughout. The same compound registered an MIC in test [16] not below 2500 µM.

Consider `CC[C@H](C)[C@H](N)C(=O)N[C@@H](CC(C)C)C(=O)N[C@@H](CCCCN)C(=O)N[C@@H](Cc1c[nH]c2ccccc12)C(=O)N[C@@H](CCCCN)C(=O)N[C@@H](CCSC)C(=O)N[C@@H](Cc1ccccc1)C(=O)N[C@@H](CCCCN)C(=O)N[C@@H](Cc1c[nH]c2ccccc12)C(=O)N[C@@H](CCCCN)C(=O)N[C@@H](Cc1c[nH]c2ccccc12)C(=O)N[C@@H](Cc1ccccc1)C(=O)N[C@@H](CCCN=C(N)N)C(N)=O` [ILKWKMFKWKWFR], for which the MIC in test [17] was 4 µM (≈ 7.59 µg/mL); in test [18], 16 µM (≈ 30.3 µg/mL); in [19] it was 16 µM (≈ 30.3 µg/mL); in [20], 2 µM (≈ 3.79 µg/mL).

As for `NCCCC[C@H](NC(=O)[C@H](CCCN=C(N)N)NC(=O)[C@H](CCCCN)NC(=O)[C@H](CCCCN)NC(=O)[C@H](CCCN=C(N)N)NC(=O)[C@@H](N)CCCCN)C(=O)O` [KRKKRK], the figures for the MIC (in test [21]; against Staphylococcus xylosus) were not below 64 µM and 16 µM (≈ 13.5 µg/mL), respectively.

Take `CC(C)C[C@H](NC(=O)[C@H](CCCN=C(N)N)NC(=O)[C@@H]1CCCN1C(=O)[C@@H]1CCCN1C(=O)[C@H](CCCN=C(N)N)NC(=O)[C@@H]1CCCN1)C(=O)N1CCC[C@H]1C(=O)N[C@@H](CCCN=C(N)N)C(=O)N1CCC[C@H]1C(=O)N[C@@H](CCCN=C(N)N)C(=O)N1CCC[C@H]1C(=O)N[C@@H](CCCN=C(N)N)C(=O)N1CCC[C@H]1C(=O)N[C@@H](CC(C)C)C(=O)N1CCC[C@H]1C(=O)N[C@@H](Cc1ccccc1)C(=O)N1CCC[C@H]1C(=O)N[C@@H](CCCN=C(N)N)C(=O)N1CCC[C@H]1C(=O)NCC(=O)O` [PRPPRLPRPRPRPLPFPRPG]: the MIC was more than 500 µM in test [22], 18.1 µM (≈ 42.7 µg/mL) in test [23] and 17.6 µM (≈ 41.5 µg/mL) in [24].

As to `CC[C@H](C)[C@H](NC(=O)[C@H](CC(C)C)NC(=O)[C@@H](NC(=O)[C@H](CC(C)C)NC(=O)[C@@H](NC(=O)[C@H](CCCCN)NC(=O)[C@@H](N)CCCN=C(N)N)[C@@H](C)CC)[C@@H](C)CC)C(=O)N[C@@H](CCCCN)C(=O)N[C@@H](CCCN=C(N)N)C(=O)N[C@@H](CCCCN)C(=O)O` [RKILILIKRK], the MIC in test [21] worked out at 16 µM (≈ 20.5 µg/mL); against Staphylococcus xylosus it was 4 µM (≈ 5.12 µg/mL).

As for `CC[C@H](C)[C@H](NC(=O)[C@@H](NC(=O)[C@H](CCCN=C(N)N)NC(=O)[C@H](Cc1c[nH]c2ccccc12)NC(=O)[C@H](CCCN=C(N)N)NC(=O)[C@@H](N)CCCN=C(N)N)C(C)C)C(=O)N[C@H](C(=O)N[C@@H](CCCCN)C(=O)N[C@@H](Cc1c[nH]c2ccccc12)C(N)=O)C(C)C` [RRWRVIVKW], the MIC was found to be 4 µM (≈ 5.19 µg/mL) in test [17], 8 µM (≈ 10.4 µg/mL) in [18], 4 µM (≈ 5.19 µg/mL) in [19] and 4 µM (≈ 5.19 µg/mL) in [20].

Regarding `CC[C@H](C)[C@H](NC(=O)[C@@H]1CCCN1C(=O)[C@H](CCCCN)NC(=O)[C@@H]1CCCN1C(=O)[C@H](CCCN=C(N)N)NC(=O)CNC(=O)[C@@H]1CCCN1C(=O)[C@H](Cc1ccccc1)NC(=O)[C@@H]1CCCN1C(=O)[C@H](CCCN=C(N)N)NC(=O)[C@@H]1CCCN1C(=O)[C@H](CCCN=C(N)N)NC(=O)CNC(=O)[C@@H]1CCCN1C(=O)[C@H](CO)NC(=O)[C@@H]1CCCN1C(=O)[C@H](Cc1c[nH]c2ccccc12)NC(=O)[C@H](CCCN=C(N)N)NC(=O)[C@@H](N)CO)C(=O)N[C@@H](Cc1ccccc1)C(=O)O` [SRWPSPGRPRPFPGRPKPIF], the MIC in test [25] was 17.7 µM (≈ 41.2 µg/mL); with Escherichia coli HB101, not below 35.4 µM; in [26] it was not below 100 µM; in test [27], more than 100 µM; in test [23] it was more than 100 µM.

Turning to `CC(C)C[C@H](NC(=O)[C@H](CC(C)C)NC(=O)[C@H](CC(N)=O)NC(=O)[C@H](CC(N)=O)NC(=O)[C@H](CC(C)C)NC(=O)[C@@H](N)C(C)C)C(=O)N[C@@H](CCCN=C(N)N)C(=O)O` [VLNNLLR], the MIC in test [4] was not below 1250 µM; in [5], not below 312 µM; in test [6] it was not below 1250 µM; in [7], not below 2500 µM; in [8] it was not below 2500 µM; in test [9], not below 1250 µM. Moreover, the MIC is not below 1250 µM in [10]; not below 2500 µM in test [11]; not below 312 µM in test [12]; not below 1250 µM in test [13]; not below 1250 µM in [14]; 64 µM (≈ 53.8 µg/mL) in test [27]. The MIC in test [15] was not below 625 µM; in [16], not below 1250 µM.

Source of the values: DBAASP.
